# Key:
# [1] = tested on: ERK1/2 in Caco-2 NMU clones; assay: ERK1/2 kinase activation in Caco-2 NMU clones with inhibitor; assay type: cell-based, human; details: preincubated 1 h with 20 µM inhibitor, immunoblot, n ≥ 4
# Procedure: CRC cells were lysed with RIPA buffer (100 mM TRIS-HCl, pH 7.5, 300 mM NaCl, 0.2 % SDS with 1 % IGEPAL CA-630 and the Halt™ Protease Inhibitor Cocktail (Thermo Fisher Scientific)) with subsequent centrifugation (18,000 x g, 4 °C, 20 min). Total protein concentration in lysate was quantified by BCA method (Pierce BCA Protein Assay; Thermo Fisher Scientific). Samples were loaded and separated by SDS-PAGE (Mini-PROTEAN TGX Stain-Free Gels; Bio-Rad Laboratories, CA, USA) and transferred onto nitrocellulose membranes (Bio-Rad Laboratories). NMU protein was detected with rabbit anti-NMU antibody (Genetex, CA, USA), for ERK1/2 kinases analysis mouse anti-ERK1/2 (Santa Cruz Biotechnology, USA) and rabbit anti-pERK1/2 antibodies (Invitrogen) were used. In EVs (extracellular vesicles) purity analysis we used rabbit antibodies anti-GM130, anti-annexin V and anti-flotilin-1 (Cell Signaling Technologies, Danvers, MA, USA). Proteins used as loading controls were detected by mouse anti-β-actin, mouse anti-α-tubulin or rabbit anti-GAPDH antibody (Abcam, Cambridge, GB). We used secondary HRP-conjugated goat anti-mouse (Santa Cruz Biotechnology) or anti-rabbit antibodies (Invitrogen). The signal was detected by chemiluminescence (Thermo Fisher Scientific) with Kodak BioMax Light Film from Eastman Kodak (NY, USA). […]
# Caco-2 NMU1 clone = assay: Cell migration assay (Transwell); assay type: cell-based, human; details: 8 μm Transwell, 3 h, n = 4
# Procedure: Migration and invasion assays were performed using an 8 μm pore size Transwell system (Thermo Fischer Scientific). First, 2 × 10^5 cells, were incubated with CellTracker™ Green CMFDA Dye (Invitrogen) for 30 min at 37 °C with following washing step with PBS. Cells resuspended in 200 ul of growth medium without FBS were added inside the insert fixed in the well with 600 ul medium with 10 % FBS. For invasion assays, the chamber was pre-coated with 1 mg/ml Matrigel (Corning). Cells were incubated for 3 h (migration) or 6 h (invasion) at 37 °C. Cells on the apical side of the chamber were gently scraped off using cotton swabs, filters were washed in PBS and pictures were taken under the microscope Nikon Eclipse TE 2000-U. Pictures analysis was done with the use of FIJI image processing package.
smiles,measurement,setting,value
COc1cccc(-c2cc(=O)c3ccccc3o2)c1N [PD98059],Activity of the ERK1/2 signalling pathway in the presence of inhibitor,[1],sensitive
same,Cell migration in the presence of inhibitor,Caco-2 NMU1 clone,inhibited
